Source: publication PMC8286840, “Identifying SARS-CoV-2 antiviral compounds by screening for small molecule inhibitors of Nsp3 papain-like protease” (Biochemical Journal, 2021)
Structures can show the parent of a compound that is named as a salt. Where two headings read alike, the source gives them in different places.

Columns and labels:
[1] = molecular target: T1, SARS-CoV-2 PLpro (nsp3 1564–1878) (Severe acute respiratory syndrome coronavirus 2, UniProt P0DTD1); experiment: biochemical; parameters: FRET-quenched peptide (Pro3) cleavage by PLpro, 10 min pre-incubation, slope over 20 min, normalised to no-compound control; settings: read-out: % of control remaining
Protocol: The plates were organized with columns 3–22 containing the compounds; the remaining columns were used for reaction controls including substrate only and substrate with enzyme but no compound (Figure 3Aii). The PLpro enzyme was pre-incubated with the compounds for 10 min, and then the reaction was initiated by the addition of substrate. […] We incubated the inhibitors with PLpro before the enzymatic reaction so that the slow-binding inhibitors will not be missed out [21]. […] Fluorescence was read on a Spark multimode microplate reader (Tecan) with an excitation wavelength at 330 nm and emission wavelength at 420 nm. […] An amount of 5 µl of the enzyme was pre-incubated with compounds for 10 min before the addition of 15 µl substrate. Fluorescence was monitored at 2 min for 20 min with 3 min intervals giving a total of seven readings.

[2] = molecular target: T1, SARS-CoV-2 PLpro (nsp3 1564–1878); experiment: biochemical; parameters: FRET-quenched peptide (Pro3) cleavage by PLpro, 10 min pre-incubation, slope over 20 min, normalised to no-compound control; settings: read-out: % of control remaining; remark: listed apart in the source

## Oc1ccc(C2CNCc3sccc32)cc1O (stereo not drawn) [SKF 89626]
[1]; Well no.=1456, low concentration screen
  remaining activity at 1.25 µM: 98.5%
[2]; Well no.=1456, high concentration screen
  remaining activity at 3.75 µM: 99.7%

## O=C(O)C1CCCN(CCC=C(c2ccccc2)c2ccccc2)C1 (stereo not drawn) [SKF 89976A hydrochloride]
[1]; Well no.=1323, low concentration screen
  remaining activity at 1.25 µM: 99.7%
[2]; Well no.=1323, high concentration screen
  remaining activity at 3.75 µM: 102%

## CN(C)CCCCSC(=N)N [SKF 91488 dihydrochloride]
[1]; Well no.=1421, low concentration screen
  remaining activity at 1.25 µM: 100%
[2]; Well no.=1421, high concentration screen
  remaining activity at 3.75 µM: 98.7%

## COc1ccc(CCCOC(Cn2ccnc2)c2ccc(OC)cc2)cc1 (stereo not drawn) [SKF 96365]
[1]; Well no.=1412, low concentration screen
  remaining activity at 1.25 µM: 98.9%
[2]; Well no.=1412, high concentration screen
  remaining activity at 3.75 µM: 100%

## CP(=O)(O)CCCN [SKF 97541 hydrochloride]
[1]; Well no.=66, low concentration screen
  remaining activity at 1.25 µM: 97.4%
[2]; Well no.=66, high concentration screen
  remaining activity at 3.75 µM: 98.7%

## CCCC(C(=O)OCCN(CC)CC)(c1ccccc1)c1ccccc1 [SKF-525A hydrochloride]
[1]; Well no.=902, low concentration screen
  remaining activity at 1.25 µM: 105%
[2]; Well no.=902, high concentration screen
  remaining activity at 3.75 µM: 101%

## C=CCN1CCc2c(cc(O)c(O)c2Cl)C(c2ccccc2)C1 (stereo not drawn) [SKF-82958 (hydrobromide)]
[1]; Well no.=7905, low concentration screen
  remaining activity at 1.25 µM: 105%
[2]; Well no.=7905, high concentration screen
  remaining activity at 3.75 µM: 101%

## Fc1ccc(-c2nc3n(c2-c2ccncc2)CCS3)cc1 [SKF-86002]
[1]; Well no.=2652, low concentration screen
  remaining activity at 1.25 µM: 96.2%
[2]; Well no.=2652, high concentration screen
  remaining activity at 3.75 µM: 97.9%

## COc1cc2ncnc(Sc3nnc(C)s3)c2cc1OC [SKLB1002]
[1]; Well no.=5943, low concentration screen
  remaining activity at 1.25 µM: 102%
[2]; Well no.=5943, high concentration screen
  remaining activity at 3.75 µM: 102%

## CN[C@@H](C)C(=O)N[C@H]1CCCC[C@H]2CC[C@@H](C(=O)N[C@@H](c3ccccc3)c3cn(CCCCc4ccc(CCCCn5cc([C@@H](NC(=O)[C@@H]6CC[C@@H]7CCCC[C@H](NC(=O)[C@H](C)NC)C(=O)N76)c6ccccc6)nn5)cc4)nn3)N2C1=O [SM-164 Hydrochloride]
[1]; Well no.=7030, low concentration screen
  remaining activity at 1.25 µM: 105%
[1]; Well no.=8556, low concentration screen
  remaining activity at 1.25 µM: 104%
[2]; Well no.=7030, high concentration screen
  remaining activity at 3.75 µM: 102%
[2]; Well no.=8556, high concentration screen
  remaining activity at 3.75 µM: 99.5%

## O=C(Nc1ncc([N+](=O)[O-])s1)c1ccc([N+](=O)[O-])c(Cl)c1 [SM-7368]
[1]; Well no.=5947, low concentration screen
  remaining activity at 1.25 µM: 104%
[2]; Well no.=5947, high concentration screen
  remaining activity at 3.75 µM: 103%

## COc1cc2cc(c1Cl)N(C)C(=O)C[C@H](OC(=O)[C@H](C)N(C)C(=O)CCSC1CC(=O)N(CC3CCC(C(=O)ON4C(=O)CCC4=O)CC3)C1=O)[C@]1(C)O[C@H]1[C@H](C)[C@@H]1C[C@@](O)(NC(=O)O1)[C@H](OC)/C=C/C=C(\C)C2 (stereo partly drawn) [SMCC-DM1]
[1]; Well no.=8216, low concentration screen
  remaining activity at 1.25 µM: 100%
[2]; Well no.=8216, high concentration screen
  remaining activity at 3.75 µM: 96.4%

## O=C1NC(=O)/C(=C/c2cccc(C(F)(F)F)c2)S1 [SMI-4a]
[1]; Well no.=4788, low concentration screen
  remaining activity at 1.25 µM: 104%
[2]; Well no.=4788, high concentration screen
  remaining activity at 3.75 µM: 101%

## CCCCc1ccc(NC(C)=O)c(C)c1 [SMIP004]
[1]; Well no.=6972, low concentration screen
  remaining activity at 1.25 µM: 101%
[2]; Well no.=6972, high concentration screen
  remaining activity at 3.75 µM: 98.7%

## C=CCN1C[C@H](C)N([C@H](c2ccc(C(=O)N(CC)CC)cc2)c2cccc(OC)c2)C[C@H]1C [SNC80]
[1]; Well no.=1216, low concentration screen
  remaining activity at 1.25 µM: 99.3%
[2]; Well no.=1216, high concentration screen
  remaining activity at 3.75 µM: 102%

## CC(C)(C)c1cnc(CSc2cnc(NC(=O)C3CCNCC3)s2)o1 [SNS-032]
[1]; Well no.=2845, low concentration screen
  remaining activity at 1.25 µM: 105%
[2]; Well no.=2845, high concentration screen
  remaining activity at 3.75 µM: 104%

## O=C(Nc1cccc(Cl)c1)Nc1ncc(CCNc2ncnc3ccsc23)s1 [SNS-314]
[1]; Well no.=2893, low concentration screen
  remaining activity at 1.25 µM: 101%
[2]; Well no.=2893, high concentration screen
  remaining activity at 3.75 µM: 101%

## CC1(C)CC(=O)c2c(C(F)(F)F)nn(-c3ccc(C(N)=O)c(N[C@H]4CC[C@H](O)CC4)c3)c2C1 [SNX-2112]
[1]; Well no.=4635, low concentration screen
  remaining activity at 1.25 µM: 99.3%
[2]; Well no.=4635, high concentration screen
  remaining activity at 3.75 µM: 95.7%

## Oc1c2ccccc2c2c3c(cccc13)N=N2 [SP 600125 - Anthra[1-9-cd]pyrazol-6(2H)-one]
[1]; Well no.=2432, low concentration screen
  remaining activity at 1.25 µM: 96.1%
[2]; Well no.=2432, high concentration screen
  remaining activity at 3.75 µM: 105%

## COc1cc2cc(c1Cl)N(C)C(=O)C[C@H](OC(=O)[C@H](C)N(C)C(=O)CCC(C)(C)SSCCCC(=O)ON1C(=O)CCC1=O)[C@]1(C)O[C@H]1[C@H](C)[C@@H]1C[C@@](O)(NC(=O)O1)[C@H](OC)/C=C\C=C(\C)C2 [SPDB-DM4]
[1]; Well no.=7700, low concentration screen
  remaining activity at 1.25 µM: 106%
[2]; Well no.=7700, high concentration screen
  remaining activity at 3.75 µM: 106%

## Nc1ncnc2c1ncn2C1CCCO1 (stereo not drawn) [SQ22536]
[1]; Well no.=6236, low concentration screen
  remaining activity at 1.25 µM: 103%
[1]; Well no.=7958, low concentration screen
  remaining activity at 1.25 µM: 92.2%
[2]; Well no.=6236, high concentration screen
  remaining activity at 3.75 µM: 104%
[2]; Well no.=7958, high concentration screen
  remaining activity at 3.75 µM: 93.7%

## Nc1ncnc2c1ncn2C1CCCO1 (stereo not drawn) [SQ 22536]
[1]; Well no.=1517, low concentration screen
  remaining activity at 1.25 µM: 98.3%
[2]; Well no.=1517, high concentration screen
  remaining activity at 3.75 µM: 99.9%

## O=C(O)CCC/C=C\C[C@@H]1[C@H](CNNC(=O)Nc2ccccc2)[C@H]2CC[C@@H]1O2 [SQ-29548]
[1]; Well no.=4526, low concentration screen
  remaining activity at 1.25 µM: 92.8%
[2]; Well no.=4526, high concentration screen
  remaining activity at 3.75 µM: 94.8%

## O=C(Nc1ccc(C(O)(C(F)(F)F)C(F)(F)F)cc1)c1ccccc1Cl [SR0987]
[1]; Well no.=8133, low concentration screen
  remaining activity at 1.25 µM: 95.1%
[2]; Well no.=8133, high concentration screen
  remaining activity at 3.75 µM: 99.6%

## CC(=O)Nc1nc(C)c(S(=O)(=O)Nc2ccc(C(O)(C(F)(F)F)C(F)(F)F)cc2)s1 [SR1001]
[1]; Well no.=8467, low concentration screen
  remaining activity at 1.25 µM: 106%
[2]; Well no.=5461, high concentration screen
  remaining activity at 3.75 µM: 111%
[2]; Well no.=8467, high concentration screen
  remaining activity at 3.75 µM: 106%

## O=C(Nc1ccc(C(O)(C(F)(F)F)C(F)(F)F)cc1)c1ccc(C(F)(F)F)cc1 [SR1078]
[1]; Well no.=8503, low concentration screen
  remaining activity at 1.25 µM: 107%
[2]; Well no.=8503, high concentration screen
  remaining activity at 3.75 µM: 105%

## O=S(=O)(Nc1ccc(C(O)(C(F)(F)F)C(F)(F)F)cc1)c1cccs1 [SR3335]
[1]; Well no.=8457, low concentration screen
  remaining activity at 1.25 µM: 110%
[2]; Well no.=8457, high concentration screen
  remaining activity at 3.75 µM: 107%

## CN(C)CCOc1cc(-c2cn[nH]c2)ccc1NC(=O)C1COc2ccccc2O1 (stereo not drawn) [SR3677]
[1]; Well no.=2989, low concentration screen
  remaining activity at 1.25 µM: 97.2%
[2]; Well no.=2989, high concentration screen
  remaining activity at 3.75 µM: 98.3%

## CC1(C)CCC(C)(C)c2cc(C3(c4ccc(C(=O)O)cc4)OCCO3)ccc21 [SR11237]
[1]; Well no.=5768, low concentration screen
  remaining activity at 1.25 µM: 96%
[2]; Well no.=5768, high concentration screen
  remaining activity at 3.75 µM: 90.6%

## O=C(O)c1ccccc1Nc1cccc(OCc2ccc3ccccc3n2)c1 [SR 2640]
[1]; Well no.=1316, low concentration screen
  remaining activity at 1.25 µM: 101%
[2]; Well no.=1316, high concentration screen
  remaining activity at 3.75 µM: 101%

## CCOP(=O)(OCC)C(=Cc1cc(C(C)(C)C)c(O)c(C(C)(C)C)c1)P(=O)(OCC)OCC [SR 12813]
[1]
  remaining activity at 1.25 µM: 96.5%
[2]
  remaining activity at 3.75 µM: 103%

## CC(C)c1cc(C(C)C)c(-c2csc(N(CCN(C)C)Cc3cccnc3)n2)c(C(C)C)c1 [SR 27417]
[1]; Well no.=5599, low concentration screen
  remaining activity at 1.25 µM: 100%
[2]; Well no.=5599, high concentration screen
  remaining activity at 3.75 µM: 100%

## NC1CCN(c2cccc(Cl)n2)CC1 [SR 57227A]
[1]; Well no.=1262, low concentration screen
  remaining activity at 1.25 µM: 103%
[2]; Well no.=1262, high concentration screen
  remaining activity at 3.75 µM: 102%

## COc1ccc(-c2ccc(=N)n(CCCC(=O)O)n2)cc1 [SR-95531]
[1]; Well no.=1325, low concentration screen
  remaining activity at 1.25 µM: 103%
[2]; Well no.=1325, high concentration screen
  remaining activity at 3.75 µM: 98.9%

## O=C(Nc1ccccc1-c1cn2c(CN3CCNCC3)csc2n1)c1cnc2ccccc2n1 [SRT1720]
[1]; Well no.=4673, low concentration screen
  remaining activity at 1.25 µM: 100%
[2]; Well no.=4673, high concentration screen
  remaining activity at 3.75 µM: 98.8%
